Consider 1 compound from article PMC5218480 (PLoS ONE, 2017).

The test concerns MV-4-11 cells. Kind of test: Gene expression microarray analysis (Affymetrix PrimeView) and GSEA. Set-up: RFU PODN (11730768_x_at) / Fold change /veh PODN (11730768_x_at) / RFU LINC00158 (11744669_a_at) / Fold change /veh LINC00158 (11744669_a_at) / RFU DUSP10 (11751237_a_at) / Fold change /veh DUSP10 (11751237_a_at) / RFU ID3 (11757404_x_at) / Fold change /veh ID3 (11757404_x_at) / RFU PLEKHG5 (11737974_s_at) / Fold change /veh PLEKHG5 (11737974_s_at) / RFU LRRC4B (11730491_at) / Fold change /veh LRRC4B (11730491_at) / RFU GIMAP4 (11747438_a_at) / Fold change /veh GIMAP4 (11747438_a_at) / RFU KRT8 (11758183_x_at) / Fold change /veh KRT8 (11758183_x_at) / RFU CNN1 (11734310_a_at) / Fold change /veh CNN1 (11734310_a_at) / RFU VPS37D (11726825_at) / Fold change /veh VPS37D (11726825_at) / RFU C10orf10 (11716522_x_at) / Fold change /veh C10orf10 (11716522_x_at) / RFU KIR2DL2 /// KIR2DL4 /// KIR2DL5A /// KIR2DL5B /// KIR2DS1 /// KIR2DS2 /// KIR2DS3 /// KIR2DS4 /// KIR3DL3 /// KIR3DL3 /// KIR3DS1 (11738374_at) / Fold change /veh KIR2DL2 /// KIR2DL4 /// KIR2DL5A /// KIR2DL5B /// KIR2DS1 /// KIR2DS2 /// KIR2DS3 /// KIR2DS4 /// KIR3DL3 /// KIR3DL3 /// KIR3DS1 (11738374_at) / RFU C1QL1 (11718748_at) / Fold change /veh C1QL1 (11718748_at) / RFU TMPRSS4 (11747572_a_at) / Fold change /veh TMPRSS4 (11747572_a_at) / RFU HAMP (11756126_x_at) / Fold change /veh HAMP (11756126_x_at) / RFU RNFT2 (11725882_a_at) / Fold change /veh RNFT2 (11725882_a_at) / RFU NR4A2 (11747474_a_at) / Fold change /veh NR4A2 (11747474_a_at) / RFU ABCC12 (11746883_a_at) / Fold change /veh ABCC12 (11746883_a_at) / RFU TMEM136 (11760407_x_at) / Fold change /veh TMEM136 (11760407_x_at) / RFU CLDN22 /// WWC2 (11732394_at) / Fold change /veh CLDN22 /// WWC2 (11732394_at) / RFU HLA-DPB1 (11760878_x_at) / Fold change /veh HLA-DPB1 (11760878_x_at) / RFU SPINT1 (11716480_a_at) / Fold change /veh SPINT1 (11716480_a_at) / RFU GAP43 (11754022_s_at) / Fold change /veh GAP43 (11754022_s_at) / RFU A4GNT (11735810_at) / Fold change /veh A4GNT (11735810_at) / RFU PRB3 (11715151_x_at) / Fold change /veh PRB3 (11715151_x_at) / RFU TUBB4B (11761932_at) / Fold change /veh TUBB4B (11761932_at) / RFU CAPN14 (11732068_a_at) / Fold change /veh CAPN14 (11732068_a_at) / RFU TMCC2 (11721928_a_at) / Fold change /veh TMCC2 (11721928_a_at) / RFU IRGQ (11745062_a_at) / Fold change /veh IRGQ (11745062_a_at) / RFU FAM174B (11720279_a_at) / Fold change /veh FAM174B (11720279_a_at) / RFU TMPRSS4 (11748680_a_at) / Fold change /veh TMPRSS4 (11748680_a_at) / RFU FAM212B (11763350_a_at) / Fold change /veh FAM212B (11763350_a_at) / RFU PLEKHG5 (11743358_a_at) / Fold change /veh PLEKHG5 (11743358_a_at) / RFU ZSCAN30 (11745921_a_at) / Fold change /veh ZSCAN30 (11745921_a_at) / RFU CMKLR1 (11741424_a_at) / Fold change /veh CMKLR1 (11741424_a_at) / RFU LOC101060620 /// MAPK8IP1 (11723275_at) / Fold change /veh LOC101060620 /// MAPK8IP1 (11723275_at) / RFU SPTSSB (11747773_x_at) / Fold change /veh SPTSSB (11747773_x_at) / RFU PRSS12 (11739890_at) / Fold change /veh PRSS12 (11739890_at) / RFU BIN1 (11741810_x_at) / Fold change /veh BIN1 (11741810_x_at) / RFU WNT11 (11732464_a_at) / Fold change /veh WNT11 (11732464_a_at) / RFU C10orf10 (11716521_a_at) / Fold change /veh C10orf10 (11716521_a_at) / RFU C5orf56 (11738089_at) / Fold change /veh C5orf56 (11738089_at) / RFU CYB561 (11721691_x_at) / Fold change /veh CYB561 (11721691_x_at) / RFU ANKRD19P (11752326_a_at) / Fold change /veh ANKRD19P (11752326_a_at) / RFU OR2T12 /// OR2T33 /// OR2T8 (11738714_s_at) / Fold change /veh OR2T12 /// OR2T33 /// OR2T8 (11738714_s_at) / RFU VCAN (11748164_a_at) / Fold change /veh VCAN (11748164_a_at) / RFU JSRP1 (11732532_at) / Fold change /veh JSRP1 (11732532_at) / RFU KRTAP10-11 (11738290_x_at) / Fold change /veh KRTAP10-11 (11738290_x_at) / RFU MYO3A (11730013_a_at) / Fold change /veh MYO3A (11730013_a_at) / RFU EBF3 (11725865_a_at) / Fold change /veh EBF3 (11725865_a_at) / RFU CAMK2N1 (11719241_x_at) / Fold change /veh CAMK2N1 (11719241_x_at) / RFU C5orf56 (11738088_a_at) / Fold change /veh C5orf56 (11738088_a_at) / RFU OLFML3 (11715873_a_at) / Fold change /veh OLFML3 (11715873_a_at) / RFU LOC100653217 /// NTM (11731650_a_at) / Fold change /veh LOC100653217 /// NTM (11731650_a_at) / RFU MAPK11 (11762145_a_at) / Fold change /veh MAPK11 (11762145_a_at) / RFU FIZ1 (11724087_x_at) / Fold change /veh FIZ1 (11724087_x_at) / RFU OASL (11726364_x_at) / Fold change /veh OASL (11726364_x_at) / RFU SOX15 (11748057_x_at) / Fold change /veh SOX15 (11748057_x_at) / RFU CD79A (11719716_a_at) / Fold change /veh CD79A (11719716_a_at) / RFU HIST1H1D (11736915_at) / Fold change /veh HIST1H1D (11736915_at) / RFU CASKIN2 (11723855_a_at) / Fold change /veh CASKIN2 (11723855_a_at) / RFU LOC730098 (11760151_x_at) / Fold change /veh LOC730098 (11760151_x_at) / RFU OR4N2 (11742367_at) / Fold change /veh OR4N2 (11742367_at) / RFU PRRT2 (11749266_a_at) / Fold change /veh PRRT2 (11749266_a_at) / RFU SNX32 (11753110_a_at) / Fold change /veh SNX32 (11753110_a_at) / RFU CDHR5 (11726645_a_at) / Fold change /veh CDHR5 (11726645_a_at) / RFU RCAN1 (11760418_a_at) / Fold change /veh RCAN1 (11760418_a_at) / RFU FAM167A (11723789_a_at) / Fold change /veh FAM167A (11723789_a_at) / RFU FAM26E (11764081_at) / Fold change /veh FAM26E (11764081_at) / RFU ISYNA1 (11749810_s_at) / Fold change /veh ISYNA1 (11749810_s_at) / RFU ACY1 (11761880_at) / Fold change /veh ACY1 (11761880_at) / RFU 11764098_at / Fold change /veh 11764098_at / RFU SAMD14 (11745864_x_at) / Fold change /veh SAMD14 (11745864_x_at) / RFU NPB (11741838_a_at) / Fold change /veh NPB (11741838_a_at) / RFU TMPRSS6 (11731388_a_at) / Fold change /veh TMPRSS6 (11731388_a_at) / RFU KRTAP10-2 (11738614_at) / Fold change /veh KRTAP10-2 (11738614_at) / RFU ARHGAP8 /// PRR5-ARHGAP8 (11727945_x_at) / Fold change /veh ARHGAP8 /// PRR5-ARHGAP8 (11727945_x_at) / RFU KRTAP5-7 /// NADSYN1 (11734609_at) / Fold change /veh KRTAP5-7 /// NADSYN1 (11734609_at) / RFU RASL12 (11751679_a_at) / Fold change /veh RASL12 (11751679_a_at) / RFU CDKN2B (11736163_a_at) / Fold change /veh CDKN2B (11736163_a_at) / RFU PRF1 (11729649_at) / Fold change /veh PRF1 (11729649_at) / RFU, ZNF638 /// ZNF638-IT1 / Fold change vs veh, ZNF638 /// ZNF638-IT1 / RFU, PANK3 / Fold change vs veh, PANK3 / RFU, SH3YL1 / Fold change vs veh, SH3YL1 / RFU, ZEB2 / Fold change vs veh, ZEB2 / RFU, NRIP1 / Fold change vs veh, NRIP1 / RFU, PTTG1IP / Fold change vs veh, PTTG1IP / RFU, CAPN2 / Fold change vs veh, CAPN2 / RFU, MED14 / Fold change vs veh, MED14 / RFU, SNORA58 / Fold change vs veh, SNORA58 / RFU, C1orf63 / Fold change vs veh, C1orf63 / RFU, LRRFIP1 / Fold change vs veh, LRRFIP1 / RFU, NDUFAF7 / Fold change vs veh, NDUFAF7 / RFU, SLC12A2 / Fold change vs veh, SLC12A2 / RFU, IBTK / Fold change vs veh, IBTK / RFU, ESF1 / Fold change vs veh, ESF1 / Fold change vs veh, TMEM50B / RFU, TAOK1 / Fold change vs veh, TAOK1 / RFU, ACBD3 / Fold change vs veh, ACBD3 / RFU, TMA16 / Fold change vs veh, TMA16 / RFU, RWDD3 / Fold change vs veh, RWDD3 / RFU, BCAT1 / Fold change vs veh, BCAT1 / RFU, EDEM3 / Fold change vs veh, EDEM3 / RFU, TMEM33 / Fold change vs veh, TMEM33 / RFU, WDR75 / Fold change vs veh, WDR75 / RFU, AHCTF1 / Fold change vs veh, AHCTF1 / RFU, TFRC / Fold change vs veh, TFRC / RFU, ZDHHC17 / Fold change vs veh, ZDHHC17 / RFU, NOM1 / Fold change vs veh, NOM1 / RFU, ARL8B / Fold change vs veh, ARL8B / RFU, ZBTB11 / Fold change vs veh, ZBTB11 / RFU, TAMM41 / Fold change vs veh, TAMM41 / RFU, KIAA1704 /// LOC100996395 / Fold change vs veh, KIAA1704 /// LOC100996395 / RFU, ING1 / Fold change vs veh, ING1 / RFU, TRMT61B / Fold change vs veh, TRMT61B / RFU, FUBP3 / Fold change vs veh, FUBP3 / RFU, TP53 / Fold change vs veh, TP53 / RFU, TNKS2 / Fold change vs veh, TNKS2 / RFU, ZFP14 / Fold change vs veh, ZFP14 / RFU, ACTR2 / Fold change vs veh, ACTR2 / RFU, PPP3R1 / Fold change vs veh, PPP3R1 / RFU, PIK3R1 / Fold change vs veh, PIK3R1 / RFU, HNRNPA1 / Fold change vs veh, HNRNPA1 / RFU, RNF170 / Fold change vs veh, RNF170 / RFU, ZNF28 / Fold change vs veh, ZNF28 / RFU, RNGTT / Fold change vs veh, RNGTT / RFU, OGT / Fold change vs veh, OGT / RFU, BRD1 / Fold change vs veh, BRD1 / RFU, MARS / Fold change vs veh, MARS / RFU, ZNF655 / Fold change vs veh, ZNF655 / RFU, FAHD1 / Fold change vs veh, FAHD1 / RFU, BDP1 / Fold change vs veh, BDP1 / RFU, LRRCC1 / Fold change vs veh, LRRCC1 / RFU, ARID1A / Fold change vs veh, ARID1A / RFU, ZNF146 / Fold change vs veh, ZNF146 / RFU, ZNF330 / Fold change vs veh, ZNF330 / RFU, GPN3 / Fold change vs veh, GPN3 / RFU, C9orf123 / Fold change vs veh, C9orf123 / RFU, N4BP2L2 / Fold change vs veh, N4BP2L2 / RFU, ARFIP1 / Fold change vs veh, ARFIP1 / RFU, FAM179B / Fold change vs veh, FAM179B / RFU, BCL10 / Fold change vs veh, BCL10 / RFU, UHRF1BP1L / Fold change vs veh, UHRF1BP1L / RFU, BET1 / Fold change vs veh, BET1 / RFU, CNOT2 / Fold change vs veh, CNOT2 / RFU, ZNF268 / Fold change vs veh, ZNF268 / Fold change vs veh, ZNF507 / RFU, DGCR2 / Fold change vs veh, DGCR2 / RFU, WDSUB1 / Fold change vs veh, WDSUB1 / Fold change vs veh, HSP90B1 /// MIR3652 / RFU, ADSS / Fold change vs veh, ADSS / RFU, GK / Fold change vs veh, GK / RFU, ZNF148 / Fold change vs veh, ZNF148 / RFU, TAF9 / Fold change vs veh, TAF9 / RFU, SLC1A5 / Fold change vs veh, SLC1A5 / RFU, SLMO2 / Fold change vs veh, SLMO2 / RFU, ABCC4 / Fold change vs veh, ABCC4 / RFU, LOC101060439 /// RAP1B / Fold change vs veh, LOC101060439 /// RAP1B / RFU, RFX7 / Fold change vs veh, RFX7 / RFU, GTPBP10 / Fold change vs veh, GTPBP10 / RFU, CNEP1R1 / Fold change vs veh, CNEP1R1 / RFU, BIVM-ERCC5 /// ERCC5 / Fold change vs veh, BIVM-ERCC5 /// ERCC5 / RFU, ILF3 / Fold change vs veh, ILF3 / RFU 11762660_at / Fold change /veh 11762660_at / RFU VCAN (11757783_s_at) / Fold change /veh VCAN (11757783_s_at) / RFU DDX43 (11728927_at) / Fold change /veh DDX43 (11728927_at) / RFU KRT8 (11758188_x_at) / Fold change /veh KRT8 (11758188_x_at) / RFU NKD1 (11759106_at) / Fold change /veh NKD1 (11759106_at) / RFU SRD5A1 (11742802_a_at) / Fold change /veh SRD5A1 (11742802_a_at) / RFU TPSAB1 /// TPSB2 (11721975_s_at) / Fold change /veh TPSAB1 /// TPSB2 (11721975_s_at) / RFU GSTM3 (11746129_a_at) / Fold change /veh GSTM3 (11746129_a_at) / RFU IL23R (11737362_x_at) / Fold change /veh IL23R (11737362_x_at) / RFU TMEM51 (11727254_a_at) / Fold change /veh TMEM51 (11727254_a_at) / RFU PIWIL2 (11732686_x_at) / Fold change /veh PIWIL2 (11732686_x_at) / RFU ORM1 (11744905_x_at) / Fold change /veh ORM1 (11744905_x_at) / RFU CCDC152 (11743942_at) / Fold change /veh CCDC152 (11743942_at) / RFU ECM1 (11717891_a_at) / Fold change /veh ECM1 (11717891_a_at) / RFU IL23R (11748794_a_at) / Fold change /veh IL23R (11748794_a_at) / RFU TNFAIP8L3 (11732012_x_at) / Fold change /veh TNFAIP8L3 (11732012_x_at) / RFU MBOAT4 (11741988_at) / Fold change /veh MBOAT4 (11741988_at) / RFU 11764193_at / Fold change /veh 11764193_at / RFU TMEM53 (11763286_at) / Fold change /veh TMEM53 (11763286_at) / RFU MAGEB2 (11727129_at) / Fold change /veh MAGEB2 (11727129_at) / RFU TMEM200A (11744735_a_at) / Fold change /veh TMEM200A (11744735_a_at) / RFU CCDC152 (11751479_a_at) / Fold change /veh CCDC152 (11751479_a_at) / RFU FAM211A (11726209_a_at) / Fold change /veh FAM211A (11726209_a_at) / RFU RGS16 (11746705_a_at) / Fold change /veh RGS16 (11746705_a_at) / RFU VCAN (11755009_s_at) / Fold change /veh VCAN (11755009_s_at) / RFU RHOB (11743442_s_at) / Fold change /veh RHOB (11743442_s_at) / RFU RGS16 (11720943_a_at) / Fold change /veh RGS16 (11720943_a_at) / RFU RGS16 (11720944_at) / Fold change /veh RGS16 (11720944_at) / RFU, VPS4B / Fold change vs veh, VPS4B / RFU, CREB1 / Fold change vs veh, CREB1 / RFU, DNAJC13 / Fold change vs veh, DNAJC13 / RFU, GNAQ / Fold change vs veh, GNAQ / RFU, CDK5R1 / Fold change vs veh, CDK5R1 / RFU, ZRANB3 / Fold change vs veh, ZRANB3 / RFU, CUL4A / Fold change vs veh, CUL4A / RFU, CCNY / Fold change vs veh, CCNY / RFU, UFL1 / Fold change vs veh, UFL1 / RFU, COG3 / Fold change vs veh, COG3 / RFU, DIAPH2 / Fold change vs veh, DIAPH2 / RFU, SKA2 / Fold change vs veh, SKA2 / RFU, AFF3 / Fold change vs veh, AFF3 / RFU, LMF1 / Fold change vs veh, LMF1 / RFU, IPO11 / Fold change vs veh, IPO11 / RFU, DFFB / Fold change vs veh, DFFB / RFU, FOXP1 / Fold change vs veh, FOXP1 / RFU, CARD8 / Fold change vs veh, CARD8 / RFU, STRN3 / Fold change vs veh, STRN3 / RFU, ADK / Fold change vs veh, ADK / RFU, RASSF2 / Fold change vs veh, RASSF2 / RFU, WIPF1 / Fold change vs veh, WIPF1 / RFU, LARP1B / Fold change vs veh, LARP1B / RFU, RASA1 / Fold change vs veh, RASA1 / RFU, RB1 / Fold change vs veh, RB1 / RFU, PPFIA1 / Fold change vs veh, PPFIA1 / RFU, MAT2A / Fold change vs veh, MAT2A / RFU, CCT5 / Fold change vs veh, CCT5 / RFU, WDR92 / Fold change vs veh, WDR92 / RFU, CUX1 / Fold change vs veh, CUX1 / RFU, TTC7A / Fold change vs veh, TTC7A / RFU, TMEM135 / Fold change vs veh, TMEM135 / RFU, DEPTOR / Fold change vs veh, DEPTOR / RFU, CPM / Fold change vs veh, CPM / RFU, DNAJB6 / Fold change vs veh, DNAJB6 / RFU, CACNA2D3 / Fold change vs veh, CACNA2D3 / RFU, DTX4 / Fold change vs veh, DTX4 / RFU, TFCP2 / Fold change vs veh, TFCP2 / RFU, GMCL1 /// GMCL1P1 / Fold change vs veh, GMCL1 /// GMCL1P1 / RFU, AEBP2 / Fold change vs veh, AEBP2 / RFU, SNHG1 /// SNORD22 /// SNORD25 /// SNORD26 /// SNORD27 /// SNORD28 /// SNORD29 /// SNORD31 / Fold change vs veh, SNHG1 /// SNORD22 /// SNORD25 /// SNORD26 /// SNORD27 /// SNORD28 /// SNORD29 /// SNORD31 / Fold change (Aza/veh), C12orf56 (ProbeSet 11735607_a_at) / Fold change (ACY-1035/veh), C12orf56 (ProbeSet 11735607_a_at) / Fold change (Aza/veh), FGFR1OP (ProbeSet 11751329_s_at) / Fold change (ACY-1035/veh), FGFR1OP (ProbeSet 11751329_s_at) / Fold change (Aza/veh), VPS36 (ProbeSet 11739960_a_at) / Fold change (ACY-1035/veh), VPS36 (ProbeSet 11739960_a_at) / RFU SYPL1 (11715823_x_at) / Fold change /veh SYPL1 (11715823_x_at) / RFU IGFBP7 (11715501_s_at) / Fold change /veh IGFBP7 (11715501_s_at) / RFU REEP3 (11722064_at) / Fold change /veh REEP3 (11722064_at) / RFU IGLL1 (11728026_x_at) / Fold change /veh IGLL1 (11728026_x_at): dose or concentration left out as unconfirmed. Format: cell-based, human. To be noted: ProbeSet 11741199_a_at; LIST B.

As to `Nc1ccc(-c2cccs2)cc1NC(=O)c1ccc2c(c1)cc(C1CC1)n2CCN1CCOCC1` [ACY-1035], the “Fold change vs veh, LRRCC1” value is given as 0.84.
